Assays:
[1] = system: intact male Sprague-Dawley rats; test: Anabolic and androgenic activity in intact male rats; type: in vivo, rat
Experimental: (§1) Anabolic and androgenic efficacy of compound of formula (I) administered by daily oral gavage were tested. The S-isomer of compound (I) [S-(I)] was synthesized and tested as described herein.
The test article for this study was weighed and dissolved in 10% DMSO (Fischer) diluted with PEG 300 (Acros Organics, NJ) for preparation of the appropriate dosage concentrations. The animals were housed in groups of 2 to 3 animals per cage. Animals were randomly assigned to one of seven groups consisting of 4 to 5 animals per group. Control groups (intact and ORX) were administered vehicle daily. S-(I) was administered via oral gavage at doses of 0.01, 0.03, 0.1, 0.3, 0.75, and 1 mg/day to both intact and ORX groups. Where appropriate, animals were castrated on day one of the study. […]
The animals were sacrificed under anesthesia (ketamine/xyalzine, 87:13 mg/kg) and body weights were recorded. In addition, ventral prostate, seminal vesicles, and levator ani muscle were removed, individually weighed, normalized to body weight, and expressed as a percentage of intact control. […] Ventral prostate and seminal vesicle weights were evaluated as a measure of androgenic activity, whereas levator ani muscle weight was evaluated as a measure of anabolic activity. […] Serum luteinizing hormone (LH) and follicle stimulating hormone (FSH) concentrations were determined.

[2] = system: orchidectomized (ORX) male Sprague-Dawley rats; test: Anabolic and androgenic activity in castrated (ORX) male rats; type: in vivo, rat; conditions: for Seminal vesicles weight: castrated (ORX) rats, oral gavage; for Anabolic ratio (muscle/prostate weight): castrated rats
Experimental: as §1
The test article for this study was weighed and dissolved in 10% DMSO (Fischer) diluted with PEG 300 (Acros Organics, NJ) for preparation of the appropriate dosage concentrations. The animals were housed in groups of 2 to 3 animals per cage. Animals were randomly assigned to one of seven groups consisting of 4 to 5 animals per group. Control groups (intact and ORX) were administered vehicle daily. S-(I) was administered via oral gavage at doses of 0.01, 0.03, 0.1, 0.3, 0.75, and 1 mg/day to both intact and ORX groups. Where appropriate, animals were castrated on day one of the study. Treatment with S-(I) began nine days post ORX and was administered daily via oral gavage for fourteen days.
The animals were sacrificed under anesthesia (ketamine/xyalzine, 87:13 mg/kg) and body weights were recorded. In addition, ventral prostate, seminal vesicles, and levator ani muscle were removed, individually weighed, normalized to body weight, and expressed as a percentage of intact control. Student's T-test was used to compare individual dose groups to the intact control group. Significance was defined a priori as a P-value <0.05. Ventral prostate and seminal vesicle weights were evaluated as a measure of androgenic activity, whereas levator ani muscle weight was evaluated as a measure of anabolic activity. Blood was collected from the abdominal aorta, centrifuged, and sera were frozen at −80° C. prior to determination of serum hormone levels. Serum luteinizing hormone (LH) and follicle stimulating hormone (FSH) concentrations were determined.

Pharmacokinetics in dogs = type: in vivo; conditions: beagle dogs
Experimental: In order to determine the pharmacokinetics of the S-isomer of the compound of formula (I) [S-(I)], the compound was administered to beagle dogs perorally, and circulating plasma levels, terminal elimination half-life (t1/2), total body clearance (CL), terminal volume distribution (Vz) and absolute bioavailability (F %) (Table 4) were determined.

For `C[C@](O)(COc1ccc(C#N)cc1)C(=O)Nc1ccc(C#N)c(Cl)c1` [S-(I), (S)—N-(3-chloro-4-cyanophenyl)-3-(4-cyanophenoxy)-2-hydroxy-2-methylpropanamide], the “Seminal vesicles weight (in words)” value [1] was “decreases”, the Seminal vesicles weight ([2]; 0.01 mg/day) was 10%±3% and the Seminal vesicles weight ([2]; 0.03 mg/day) was 13%±4%. The Seminal vesicles weight ([2]; 0.1 mg/day) was 21%±6%, the Seminal vesicles weight ([2]; 0.3 mg/day) was 43%±8% and the Seminal vesicles weight ([2]; 0.75 mg/day) was 51%±9%. The Seminal vesicles weight ([2]; 1 mg/day) was 69%±14%, the “Anabolic ratio (muscle/prostate weight)” value ([2]; 0.01 mg/day) was 3.02 and the “Anabolic ratio (muscle/prostate weight)” value ([2]; 0.03 mg/day) was 2.13. For the same compound, the “Anabolic ratio (muscle/prostate weight)” value ([2]; 0.1 mg/day) was 2.27, the “Anabolic ratio (muscle/prostate weight)” value ([2]; 0.3 mg/day) was 1.90 and the “Anabolic ratio (muscle/prostate weight)” value ([2]; 0.75 mg/day) was 1.83. For the same compound, the “Anabolic ratio (muscle/prostate weight)” value ([2]; 1 mg/day) was 1.51, the “Absorption (in words)” value (Pharmacokinetics in dogs; perorally) was “rapidly and completely absorbed” and the bioavailability (Pharmacokinetics in dogs; dog, plasma, oral, perorally, read-out: F%, absolute bioavailability) was 96.2%. The clearance (Pharmacokinetics in dogs; dog, plasma, oral, read-out: CL, total body clearance) was 0.101 ± 0.0078 L/h/kg, the Vd (Pharmacokinetics in dogs; dog, plasma, oral, read-out: Vz, terminal volume distribution) was 1.52 ± 0.142 L/kg and the half-life (Pharmacokinetics in dogs; dog, plasma, oral, read-out: t½, terminal elimination half-life (converted)) was 10.4 ± 0.5 h.
